Source: patent US12252697B2 (priority 2019, dated 2025)
Entries after “also recorded” stand apart in the source; their conditions may differ.

Key:
[1] = test system: S. orientale F3 plants (cross B); test: progeny test segregation analysis, visual injury after 2,4-D spray; format: in vivo, Sisymbrium orientale; conditions: 200 gai ha^-1 2,4-D, 28 days after treatment
Experimental: A progeny test segregation analysis was performed on 219 F3 plants derived from self-pollination of a heterozygous F2 individual from cross B, identified via progeny test due to segregation of 2,4-D resistance in the F3 progeny. Plants were sprayed with 200 gai ha^−1 2,4-D at the 5 true leaf stage. Damage percentage was evaluated at 28 days after treatment. Leaf tissue was harvested and genomic DNA was extracted by CTAB. A KASP assay was performed with primers and methods as described above. To further test the co-segregation between the resistant phenotype and IAA2Δ27, nine each of R and S RILs from cross A and three each of R and S RILs from cross B were genotyped using the KASP assay. Two individuals were genotyped from each RIL.

IAA2 expression = IAA2 expression by Q-PCR after auxin treatment of seedlings; format: in vivo, Sisymbrium orientale; conditions: for increase of IAA2 expression compared to untreated plants and DMSO control: 2 hr exposure
Experimental: To study IAA2 expression under auxin treatments sterilized seeds from F5 RILs for each phenotype were planted in half MS and grown until expanded cotyledon stage (size was about 2 cm from root to cotyledon tips). […] After exposure plants were collected into 2 ml centrifuge tubes and frozen in liquid nitrogen. RNA was extracted using Direct-zol RNA Microprep from Zymo research, DNAase treatment was done using DNaseI from Invitogen—ThermoFisher and cDNA was generated using iScript™ according to each manufacture protocol. Q-PCR (CFX Connect™ Real-Time PCR Detection System thermal cycler, BioRad, Hercules, Calif.) was used to determine IAA2 expression. The qPCR reaction contained 12.5 μl of SYBR Green (PerfeCTa SYBR Green FastMix), 1 μl each of forward and reverse primers (5 μM), and 1 uL of cDNA for a final reaction volume of […] parameters were 50° C. for 2 min, 95° C. for 10 min, and 40 cycles of 95° C. for 30 s and 60° C. for 1 min. Relative expression quantification was calculated by Expression=2^ΔCt, where ΔCT=CT(average of Actin2 and Cyclophilin)−CT(IAA2). Each biological sample was run in two technical replicates.

[2] = test system: Arabidopsis thaliana (Col-0); test: 2,4-D spray of transformed Arabidopsis; format: in vivo; conditions: 200 g a.i. ha^-1
Experimental: Arabidopsis transformation was performed based on established protocols with modifications. IAA2 alleles were amplified by PCR from cDNA generated from RNA extracts of homozygous R and S F5 lines (cross A). RNA was extracted using Direct-zol RNA Miniprep Plus Kit (Zymo). cDNA synthesis was performed using oligo(dT)20 primers from SuperScript™ II Reverse Transcriptase (Invitrogen). Wild-type and mutant alleles were amplified by PCR using PrimeSTAR HS Premix (Takara), using primers linked with restriction enzyme sites for cloning. Purified PCR amplicons were ligated into the pGEM-T Easy Vector (Promega), transformed into E. coli, sequenced by Sanger sequencing, and digested using the restriction sites AscI and BamHI (New England BioLabs). The digested product was then ligated into the binary vector pFGC5941 and cloned into Agrobacterium tumefaciens (strain GV3101). For plant transformation, Agrobacterium 400 mL liquid cultures were incubated at 28 C overnight and after centrifugation, resuspended in a 300 mL transformation solution (5% sucrose and 0.02% Silwet L-77). Each allele of IAA2 was transformed into Arabidopsis thaliana (Col-0) by floral dip and grown to seed production.
For transformant selection, 40 mg of transformed seeds for each IAA2 allele were cleaned with bleach solution (12.5%) and plated at half MS selective media with Cefotaxime (200 mg/L) and glufosinate-ammonium (7.5 mg/L). After two weeks, positive transformants were transferred to a second selective plate with half MS, Cefotaxime (100 mg/L) and glufosinate-ammonium (5 mg/L). After selection, potential transformants were transferred to soil and grown until seed production. For T2 selection, 36 seeds were cleaned and grown on half MS and glufosinate-ammonium (5 mg/L) media. T3 homozygous plants containing just one copy of the T-DNA vector were selected and IAA2 expression was analyzed using the same primers from mustard expression assay (see below), AtCyclophilin and AtActin2 were used as normalization genes. […]

Arabidopsis root growth = test: root growth assay, transformed Arabidopsis; format: in vivo, Arabidopsis thaliana; conditions: for root growth tolerance compared with null vector or wild type gene: Arabidopsis transformed with mutant S. orientale IAA2Δ27; for root growth response: Arabidopsis transformed with the null vector
Experimental: (§1) All root assays were performed on 120 mm square petri dishes with half MS and 1% phytoagar. […] For the mustard root assay, ten seedlings (3 days after germination) of F5 RILs of each phenotype were transferred to an auxin treated or control plate, the root tip of each plant was marked and root growth was evaluated seven days after treatment. For Arabidopsis, sterilized seeds were planted directly on the treated petri dish and incubated at 4° C. for seed […] and moved to the growth chamber after 3 days. T3 homozygous plants of 35::SoIAA2WT, 35::SoIAA2Δ27, the T-DNA insertion line on AtIAA2 and the empty T-DNA from PFGC5941 plasmid as control were used in this study. Twelve plants per construct ware used in total and roots were measured three weeks after the plates were moved to the growth conditions. For all root assays, seeds were gas sterilized for 6 hours using bleach and hydrochloric acid. The plants were grown under controlled conditions of 180 uMol m^−2 light intensity, relative humidity of 60%, 16 hours of day and day/night temperatures of 22/18° C.

TIR1/auxin/IAA complex = test: surface plasmon resonance (SPR) binding assay; set-up: species or system Sisymbrium orientale; conditions: mutant IAA2Δ27 peptide vs IAA2 wild-type; compound 50 μM
Description: In short, this assay measures the binding of auxin and IAA to the receptor protein TIR1 and their unbinding.
Surface plasmon resonance (SPR) experiments were done according to published protocols. TIR1/AFBS was expressed in insect cell culture using a recombinant baculovirus. The construct contained sequences for three affinity tags, namely 6 His, maltose-binding protein (MBP) and FLAG. Initial purification using the His tag was followed by clean-up using FLAG chromatography, the purified protein was used for SPR assays by passing it over a streptavidin chip loaded with biotinylated IAA2/IAA7 degron peptides.
The SPR buffer was Hepes-buffered saline with 10 mM Hepes, 3 mM EDTA, 150 mM NaCl and 0.05% Tween 20. Compounds to be tested were premixed with the protein to a final 50 μM concentration. Binding experiments were run at a flow rate of 30 μl min^−1 using 2.0 min of injection time and 4.0 min of dissociation time. Data from a control channel (mIAA7) and from a buffer+DMSO-only run were subtracted from each sensogram following the standard double reference subtraction protocol.

[3] = test system: S. orientale populations from Southern Australia; test: single-rate 2,4-D resistance screen of S. orientale populations; format: in vivo, Sisymbrium orientale; conditions: eight populations; 250 g ha^-1 2,4-D at 4-leaf stage; leaf curl 48 h, confirmed 21 days
Experimental: The presence of IAA2Δ27 in other 2,4-D resistant populations of S. orientale was also investigated. Seeds of S. orientale populations were germinated by sowing directly onto the soil surface of seedling trays containing standard potting mix. Once emerged, seedlings were transplanted into 9.5×8.5×9.5 cm punnet pots and grown outdoors at the Waite Campus, University of Adelaide, Australia. At the 4-leaf stage, plants were treated with a single rate of 250 g. a. ha^−1 2,4-D (2,4-D amine 650, FMC) to screen for resistance. Herbicide was applied using a laboratory moving boom pesticide applicator and applied at an equivalent of 109 L ha−1 of water at a pressure of 250 kPa and a speed of 1 m s−1 using Tee-Jet 001 nozzles (Tee-Jet 8001E; Spraying Systems Co., Wheaton, Ill.). Leaf curl was assessed 48 h after treatment, with any plants showing signs of leaf curl considered susceptible and tissue harvested, while the remaining plants were considered resistant and allowed to grow for a further 21 days to confirm resistance and tissue subsequently harvested.

[4] = test system: Sisymbrium orientale PB-R1 plants; conditions: PB-R1 plants vs Roseworthy S plants; cited from earlier work
[5] = test system: S. orientale RILs root growth; test: root growth assay, S. orientale inbred lines; format: in vivo, Sisymbrium orientale; conditions: S. orientale RILs homozygous for IAA2Δ27 vs IAA2 wild-type allele
Experimental: as §1

[6] = Arabidopsis transformed with wild type S. orientale IAA2

Compound	increase of IAA2 expression compared to untreated plants and DMSO control (IAA2 expression; R seedlings)	increase of IAA2 expression compared to untreated plants and DMSO control (IAA2 expression; S seedlings)	relative expression (RE) of IAA2 (IAA2 expression; treated resistant plants)	relative expression (RE) of IAA2 (IAA2 expression; treated susceptible plants)	root growth tolerance compared with null vector or wild type gene (Arabidopsis root growth)	root growth response (Arabidopsis root growth)	association of the herbicide/IAA/TIR1 complex (Ka) (TIR1/auxin/IAA complex)	dissociation of the herbicide/IAA/TIR1 complex (Kd) (TIR1/auxin/IAA complex)	fold more resistant compared to S plants [4]	root growth tolerance [5]	also measured
O=C(O)COc1ccc(Cl)cc1Cl [2,4-D, 2,4-dichlorophenoxyacetic acid]	2.5 fold	4 fold	0.16	0.55	higher tolerance; also recorded: confers resistance	susceptible to inhibition	slower association	more rapid dissociation; also recorded: faster	22 fold	–	average injury ([1]; heterozygous plants): 24%; injury ([1]; homozygous resistant plants): 12%; visual injury ([1]; sensitive plants homozygous for IAA2WT): 70%; effect of treatment on IAA2 expression (FIG. 7) (IAA2 expression; S): increases IAA2 expression; response to herbicide treatment ([2]; Arabidopsis transformed with S. orientale IAA2Δ27): resistant; response to herbicide treatment [2, 6]: susceptible; also recorded: sensitive; response to herbicide treatment ([2]; wild type Arabidopsis): susceptible; also recorded: sensitive; populations identified as resistant [3]: four identified as resistant
Cc1cc(Cl)ccc1OCC(=O)O [MCPA]	–	–	–	–	–	–	–	–	20 fold	higher tolerance; also recorded: confers resistance	–
O=C(O)c1nc(Cl)ccc1Cl [Clopyralid]	–	–	–	–	higher tolerance; also recorded: confers resistance	–	–	–	–	–	–
COc1c(Cl)ccc(Cl)c1C(=O)O [Dicamba]	–	–	–	–	higher tolerance; also recorded: confers resistance	susceptible to inhibition	slower association	more rapid dissociation; also recorded: faster	–	–	root growth response compared with the null vector (Arabidopsis root growth; [6]): slightly more tolerant
COc1c(Cl)ccc(-c2nc(C(=O)OCc3ccccc3)c(Cl)c(N)c2F)c1F [Rinskor (florpyrauxifen-benzyl), florpyrauxifen-benzyl]	–	–	–	–	–	–	–	–	–	confers resistance	root growth tolerance ([5]; listed as fluorpyrauxifen-benzyl): higher tolerance
O=C(O)Cc1c[nH]c2ccccc12 [IAA, indoleacetic acid]	9.5 fold	7 fold	0.62	1	higher tolerance; also recorded: confers resistance	–	slower association	more rapid dissociation; also recorded: faster	–	–	–
